Assay results: US10669269B2, “Substituted N-(1H-indazol-4-yl)imidazo[1,2-a]pyridine-3-carboxamide compounds as type III receptor tyrosine kinase inhibitors” (ARRAY BIOPHARMA INC., priority 2010, dated 2020)
Structures can show the parent of a compound that is named as a salt.

Legend:
[1] = target: T1, PDGFR beta (Homo sapiens, UniProt P09619); experiment: Phospho PDGFR LICOR Cell Assay (Example B); format: cell-based; details: averaged IC50; PDGFR beta phosphorylation in HS27 human fibroblast cell line, PDGF-BB stimulation 10 minutes, normalized to total ERK
T1 construct: endogenous in cells; host or cells: HS27 human fibroblast cell line
T1 sequence (P09619 33-1106): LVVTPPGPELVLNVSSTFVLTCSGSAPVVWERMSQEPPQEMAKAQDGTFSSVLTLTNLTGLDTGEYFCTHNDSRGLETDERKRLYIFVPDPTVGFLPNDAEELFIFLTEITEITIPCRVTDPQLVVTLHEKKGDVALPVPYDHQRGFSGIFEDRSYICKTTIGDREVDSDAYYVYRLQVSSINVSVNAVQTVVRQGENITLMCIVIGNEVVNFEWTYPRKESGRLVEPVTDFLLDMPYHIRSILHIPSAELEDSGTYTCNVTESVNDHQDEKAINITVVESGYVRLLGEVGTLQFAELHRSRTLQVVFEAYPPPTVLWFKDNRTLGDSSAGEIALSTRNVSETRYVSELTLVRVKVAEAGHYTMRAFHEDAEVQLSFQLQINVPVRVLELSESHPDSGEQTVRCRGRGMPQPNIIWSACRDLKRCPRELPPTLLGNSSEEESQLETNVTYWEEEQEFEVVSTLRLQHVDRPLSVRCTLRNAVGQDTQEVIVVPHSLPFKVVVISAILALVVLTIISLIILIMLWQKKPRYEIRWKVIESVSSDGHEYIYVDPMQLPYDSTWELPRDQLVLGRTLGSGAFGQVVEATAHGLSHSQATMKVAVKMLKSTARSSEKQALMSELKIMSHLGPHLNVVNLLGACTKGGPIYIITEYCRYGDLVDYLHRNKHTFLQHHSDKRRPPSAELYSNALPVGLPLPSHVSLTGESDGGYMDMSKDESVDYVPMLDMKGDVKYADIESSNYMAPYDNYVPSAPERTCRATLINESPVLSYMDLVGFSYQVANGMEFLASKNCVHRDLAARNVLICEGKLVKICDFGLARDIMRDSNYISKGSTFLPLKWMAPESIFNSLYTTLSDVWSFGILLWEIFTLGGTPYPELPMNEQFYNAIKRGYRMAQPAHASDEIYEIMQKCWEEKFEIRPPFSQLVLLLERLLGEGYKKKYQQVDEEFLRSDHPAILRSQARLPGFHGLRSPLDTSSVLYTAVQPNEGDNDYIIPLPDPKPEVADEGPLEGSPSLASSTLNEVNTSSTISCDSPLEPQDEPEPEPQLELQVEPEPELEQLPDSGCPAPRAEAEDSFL
In short: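 HS27 human fibroblasts pretreated 1 h with compound, then stimulated 10 min with PDGF-BB. Fixed, permeabilized cells immunostained for phospho-PDGFRβ and total ERK and read by two-colour infrared fluorescence, with phospho signal normalized to ERK. IC50 = 50% of control from 4-parameter logistic fit.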

[2] = target: T1, PDGFR beta; experiment: Phospho PDGFR Cell Assay, sandwich ELISA (Example A); format: cell-based; details: averaged IC50, PDGFR beta phosphorylation in HS27 human fibroblast cell line, PDGF-BB stimulation 5 minutes
Protocol: Compounds were screened for inhibition of PDGFR beta phosphorylation in the HS27 human fibroblast cell line. Cells were seeded into a 96 well tissue culture plate, then incubated overnight in a 37° C., 5% CO2 incubator. The following day, cells were treated for one hour with test compound dilutions. After stimulation with PDGF-BB ligand for 5 minutes, cells were lysed and added to a sandwich ELISA plate from R&D Systems to detect levels of phospho PDGFR beta. A standard 4-parameter logistic model was fit to the inhibitor dose response curves, with the IC50 being defined as the concentration of inhibitor giving 50 percent of control (POC).

[3] = target: T2, cFMS (Homo sapiens, UniProt P07333); experiment: cFMS Cell-Based Assay (Example C); details: averaged IC50; phospho-cFMS in THP-1 cells stimulated with 250 ng/mL recombinant human MCSF; read-out: cFMS Cell ELISA IC50
T2 construct: THP-1 cells (human acute monocytic leukemia cell line) were serum-starved for 4 hours; endogenous in cells; host or cells: THP-1 cells (human acute monocytic leukemia cell line)
T2 sequence (P07333 20-972): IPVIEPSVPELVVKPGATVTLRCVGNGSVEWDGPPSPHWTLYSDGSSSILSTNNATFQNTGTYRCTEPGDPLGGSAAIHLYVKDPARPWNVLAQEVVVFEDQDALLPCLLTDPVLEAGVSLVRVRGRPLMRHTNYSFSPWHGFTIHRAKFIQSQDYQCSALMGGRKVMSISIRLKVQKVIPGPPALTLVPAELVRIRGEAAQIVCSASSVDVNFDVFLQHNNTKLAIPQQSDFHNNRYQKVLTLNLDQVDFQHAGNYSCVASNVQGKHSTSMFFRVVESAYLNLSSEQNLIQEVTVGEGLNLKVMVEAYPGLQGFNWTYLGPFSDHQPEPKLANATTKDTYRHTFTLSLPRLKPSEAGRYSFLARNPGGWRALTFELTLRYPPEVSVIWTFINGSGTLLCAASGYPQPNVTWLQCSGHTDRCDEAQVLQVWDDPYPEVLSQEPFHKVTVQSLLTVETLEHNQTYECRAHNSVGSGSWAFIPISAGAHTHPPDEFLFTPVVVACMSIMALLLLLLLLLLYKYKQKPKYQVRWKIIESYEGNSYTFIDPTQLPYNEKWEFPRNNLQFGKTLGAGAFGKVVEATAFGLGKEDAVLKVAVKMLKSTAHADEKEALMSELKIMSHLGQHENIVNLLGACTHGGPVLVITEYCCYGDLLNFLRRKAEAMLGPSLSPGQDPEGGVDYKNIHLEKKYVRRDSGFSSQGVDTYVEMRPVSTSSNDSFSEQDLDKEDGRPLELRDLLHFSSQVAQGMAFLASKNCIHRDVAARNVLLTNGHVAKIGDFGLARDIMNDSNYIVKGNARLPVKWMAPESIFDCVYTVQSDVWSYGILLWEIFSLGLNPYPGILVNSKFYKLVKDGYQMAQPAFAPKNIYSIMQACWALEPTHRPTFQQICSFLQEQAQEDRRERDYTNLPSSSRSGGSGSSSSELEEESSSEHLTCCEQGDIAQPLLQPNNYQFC
In short: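 THP-1 cells serum-starved 4 h, then treated 1 h with compound (9-point, 3-fold series, top dose typically 5,000 nM) at 37 °C, then stimulated 1 min with 250 ng/mL recombinant human MCSF. Phospho-cFMS in lysates quantified by capture ELISA against a purified phospho-protein standard curve. IC50 at 50 percent of control, 4-parameter logistic fit.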

[4] = target: T3, c-KIT (Homo sapiens, UniProt P10721); experiment: c-KIT Cell-Based Assay (Example D); details: averaged IC50; phospho-c-KIT in M-07e cells stimulated with 150 ng/ml recombinant human SCF; read-out: cKIT Cell ELISA IC50
T3 construct: M-07e cells (human acute megakaryoblastic leukemia cell line) were serum-starved for 4 hours; endogenous in cells; host or cells: M-07e cells (human acute megakaryoblastic leukemia cell line)
T3 sequence (P10721 26-976): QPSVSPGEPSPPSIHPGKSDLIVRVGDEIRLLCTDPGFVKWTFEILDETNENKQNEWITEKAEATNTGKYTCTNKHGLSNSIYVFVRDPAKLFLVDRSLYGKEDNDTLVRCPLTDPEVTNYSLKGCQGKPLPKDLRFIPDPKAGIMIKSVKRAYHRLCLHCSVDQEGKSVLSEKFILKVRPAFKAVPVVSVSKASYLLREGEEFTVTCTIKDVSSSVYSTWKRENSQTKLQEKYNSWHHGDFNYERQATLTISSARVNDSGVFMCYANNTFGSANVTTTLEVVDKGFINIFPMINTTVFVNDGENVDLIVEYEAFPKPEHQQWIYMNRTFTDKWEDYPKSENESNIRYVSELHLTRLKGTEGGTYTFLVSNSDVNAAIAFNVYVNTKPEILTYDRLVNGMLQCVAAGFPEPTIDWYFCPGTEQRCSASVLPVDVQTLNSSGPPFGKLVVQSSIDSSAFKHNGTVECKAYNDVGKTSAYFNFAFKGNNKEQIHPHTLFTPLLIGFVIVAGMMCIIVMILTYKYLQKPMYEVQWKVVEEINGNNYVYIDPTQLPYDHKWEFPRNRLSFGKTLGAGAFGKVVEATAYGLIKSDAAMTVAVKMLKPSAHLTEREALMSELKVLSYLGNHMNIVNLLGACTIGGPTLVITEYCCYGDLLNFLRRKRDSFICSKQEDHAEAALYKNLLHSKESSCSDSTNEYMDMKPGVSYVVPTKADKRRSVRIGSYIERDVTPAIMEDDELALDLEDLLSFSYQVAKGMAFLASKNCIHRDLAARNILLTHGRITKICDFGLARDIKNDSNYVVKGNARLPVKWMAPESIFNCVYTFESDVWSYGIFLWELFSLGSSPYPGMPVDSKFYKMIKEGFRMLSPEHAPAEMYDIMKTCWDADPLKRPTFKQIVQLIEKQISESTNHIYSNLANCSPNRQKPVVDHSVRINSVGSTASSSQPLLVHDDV
In short: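 M-07e cells serum-starved 4 h, treated 1 h with compound (9-point, 3-fold dilutions, top dose typically 5,000 nM) at 37° C, then stimulated 4 min with 150 ng/ml SCF. Phospho-c-KIT in lysates quantified by ELISA against a standard curve; IC50 from 4-parameter logistic fit as 50% of control.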

| IC50 [1] [nM] | IC50 [2] [nM] | IC50 [3] [nM] | IC50 [4] [nM] | SMILES |
| --- | --- | --- | --- | --- |
| 1670 | ≥ 1000 | – | – | Cc1cc(C)nc(Cn2nc(C)c3c(NC(=O)c4cnc5cc(OCCN6CCN(C)[C@@H](C)C6)ccn45)cccc32)c1 [Example 34, (S)-7-(2-(3,4-dimethylpiperazin-1-yl)ethoxy)-N-(1-((4,6-dimethylpyridin-2-yl)methyl)-3-methyl-1H-indazol-4-yl)imidazo[1,2-a]pyridine-3-carboxamide] |
| – | ≥ 1000 | 73.5 | 4580 | Cc1cccc(Cn2nc(C)c3c(NC(=O)c4cnc5cc(F)ccn45)cccc32)n1 [Example 53, 7-fluoro-N-(3-methyl-1-((6-methylpyridin-2-yl)methyl)-1H-indazol-4-yl)imidazo[1,2-a]pyridine-3-carboxamide] |
| – | 291 | 8.8 | 387 | Cc1cccc(Cn2nc(C)c3c(NC(=O)c4cnc5cc(N6CCCC6)ccn45)cccc32)n1 [Example 54, N-(3-methyl-1-((6-methylpyridin-2-yl)methyl)-1H-indazol-4-yl)-7-(pyrrolidin-1-yl)imidazo[1,2-a]pyridine-3-carboxamide dihydrochloride] |
| – | ≥ 1000 | 32.1 | 1160 | Cc1cccc(Cn2nc(C)c3c(NC(=O)c4cnc5cc(OCCN6CCN(C(=O)OC(C)(C)C)CC6)ccn45)cccc32)n1 [Example 56, tert-Butyl 4-(2-(3-(3-methyl-1-((6-methylpyridin-2-yl)methyl)-1H-indazol-4-ylcarbamoyl)imidazo[1,2-a]pyridin-7-yloxy)ethyl)piperazine-1-carboxylate] |
| – | 658 | 40.2 | 1270 | Cc1cccc(Cn2nc(C)c3c(NC(=O)c4cnc5cc(OCCO)ccn45)cccc32)n1 [Example 57, 7-(2-hydroxyethoxy)-N-(3-methyl-1-((6-methylpyridin-2-yl)methyl)-1H-indazol-4-yl)imidazo[1,2-a]pyridine-3-carboxamide di-hydrochloride salt] |
| – | 886 | 257 | 2450 | Cc1cccc(Cn2nc(C)c3c(NC(=O)c4cnc5ccc(C#N)cn45)cccc32)n1 [Example 62, 6-cyano-N-(3-methyl-1-((6-methylpyridin-2-yl)methyl)-1H-indazol-4-yl)imidazo[1,2-a]pyridine-3-carboxamide] |
| – | ≥ 1000 | 47 | 5000 | Cc1cccc(Cn2nc(C)c3c(NC(=O)c4cnc5cc(O)ccn45)cccc32)n1 [Example 63, 7-hydroxy-N-(3-methyl-1-((6-methylpyridin-2-yl)methyl)-1H-indazol-4-yl)imidazo[1,2-a]pyridine-3-carboxamide] |
| – | 99.2 | 5.1 | 146 | Cc1cccc(Cn2nc(C)c3c(NC(=O)c4cnc5cc(-c6cn[nH]c6)ccn45)cccc32)n1 [Example 70, N-(3-methyl-1-((6-methylpyridin-2-yl)methyl)-1H-indazol-4-yl)-7-(1H-pyrazol-4-yl)imidazo[1,2-a]pyridine-3-carboxamide] |
| – | 274 | 7.6 | 455 | Cc1cccc(Cn2nc(C)c3c(NC(=O)c4cnc5cc(-c6ccnn6C)ccn45)cccc32)n1 [Example 71, N-(3-methyl-1-((6-methylpyridin-2-yl)methyl)-1H-indazol-4-yl)-7-(1-methyl-1H-pyrazol-5-yl)imidazo[1,2-a]pyridine-3-carboxamide] |
| – | ≥ 1000 | 63.6 | 5000 | Cc1cccc(Cn2nc(C)c3c(NC(=O)c4cnc5cc(CCO)ccn45)cccc32)n1 [Example 73, 7-(2-hydroxyethyl)-N-(3-methyl-1-((6-methylpyridin-2-yl)methyl)-1H-indazol-4-yl)imidazo[1,2-a]pyridine-3-carboxamide] |
| – | ≥ 1000 | 427 | 5000 | Cc1cccc(Cn2nc(C)c3c(NC(=O)c4cnc5cc(C(C)NCCO)ccn45)cccc32)n1 (centres unmarked) [Example 75, 7-(1-(2-hydroxyethylamino)ethyl)-N-(3-methyl-1-((6-methylpyridin-2-yl)methyl)-1H-indazol-4-yl)imidazo[1,2-a]pyridine-3-carboxamide] |
| – | ≥ 1000 | 47 | 5000 | Cc1cccc(Cn2nc(C)c3c(NC(=O)c4cnc5cc(C(C)O)ccn45)cccc32)n1 (centres unmarked) [Example 76, 7-(1-hydroxyethyl)-N-(3-methyl-1-((6-methylpyridin-2-yl)methyl)-1H-indazol-4-yl)imidazo[1,2-a]pyridine-3-carboxamide] |
| – | ≥ 1000 | 78.1 | 5000 | Cc1cccc(Cn2nc(C)c3c(NC(=O)c4cnc5cc(CCN6CCCC6)ccn45)cccc32)n1 [Example 77, N-(3-methyl-1-((6-methylpyridin-2-yl)methyl)-1H-indazol-4-yl)-7-(2-(pyrrolidin-1-yl)ethyl)imidazo[1,2-a]pyridine-3-carboxamide] |
| – | ≥ 1000 | 56.9 | 4320 | CC(=O)c1ccn2c(C(=O)Nc3cccc4c3c(C)nn4Cc3cccc(C)n3)cnc2c1 [Example 79, 7-acetyl-N-(3-methyl-1-((6-methylpyridin-2-yl)methyl)-1H-indazol-4-yl)imidazo[1,2-a]pyridine-3-carboxamide] |
| – | 309 | 122 | 458 | COCCOc1ccn2c(C(=O)Nc3cccc4c3c(C)nn4CC3CCCCO3)cnc2c1 (centres unmarked) [Example 82, 7-(2-methoxyethoxy)-N-(3-methyl-1-((tetrahydro-2H-pyran-2-yl)methyl)-1H-indazol-4-yl)imidazo[1,2-a]pyridine-3-carboxamide] |
| – | ≥ 1000 | 538 | 5000 | COCCOc1ccn2c(C(=O)Nc3cccc4c3c(C)nn4CC3CCOCC3)cnc2c1 [Example 83, 7-(2-methoxyethoxy)-N-(3-methyl-1-((tetrahydro-2H-pyran-4-yl)methyl)-1H-indazol-4-yl)imidazo[1,2-a]pyridine-3-carboxamide] |
| – | ≥ 1000 | 734 | 5000 | COCCOc1ccn2c(C(=O)Nc3cccc4c3c(C)nn4CC3CC3)cnc2c1 [Example 84, N-(1-(cyclopropylmethyl)-3-methyl-1H-indazol-4-yl)-7-(2-methoxyethoxy)imidazo[1,2-a]pyridine-3-carboxamide] |
| – | 137 | 26 | 205 | O=C(Nc1cccc2c1cnn2Cc1ccccc1)c1cnc2cc(O)ccn12 [Example 92, N-(1-benzyl-1H-indazol-4-yl)-7-hydroxyimidazo[1,2-a]pyridine-3-carboxamide] |
| – | 54.8 | 168 | 125 | COCCOc1ccn2c(C(=O)Nc3cccc4c3cnn4C[C@@H]3CCCN(C(=O)OC(C)(C)C)C3)cnc2c1 [Example 117, (R)-tert-butyl 3-((4-(7-(2-methoxyethoxy)imidazo[1,2-a]pyridine-3-carboxamido)-1H-indazol-1-yl)methyl)piperidine-1-carboxylate] |
| – | 162 | 378 | 255 | COCCOc1ccn2c(C(=O)Nc3cccc4c3cnn4CC3CN(C(=O)OC(C)(C)C)CCO3)cnc2c1 (centres unmarked) [Example 123, tert-butyl 2-((4-(7-(2-methoxyethoxy)imidazo[1,2-a]pyridine-3-carboxamido)-1H-indazol-1-yl)methyl)morpholine-4-carboxylate] |
| – | 282 | 114 | 76.2 | O=C(Nc1cccc2c1cnn2Cc1ccccc1)c1cnc2ccc(Br)cn12 [Example 155, N-(1-benzyl-1H-indazol-4-yl)-6-bromoimidazo[1,2-a]pyridine-3-carboxamide] |
| – | 275 | 105 | 232 | O=C(Nc1cccc2c1cnn2Cc1ccccc1)c1cnc2cc(C(O)CO)ccn12 (centres unmarked) [Example 157, N-(1-benzyl-1H-indazol-4-yl)-7-(1,2-dihydroxyethyl)imidazo[1,2-a]pyridine-3-carboxamide] |
| – | 236 | 58.9 | 43.1 | O=C(Nc1cccc2c1cnn2Cc1ccccc1)c1cnc2cc(Br)ccn12 [Example 161, N-(1-benzyl-1H-indazol-4-yl)-7-bromoimidazo[1,2-a]pyridine-3-carboxamide] |
